The text below walks through data of patent publication US9339503B2, “Tetrahydro-quinazolinone derivatives as TANK and PARP inhibitors” (MERCK PATENT GMBH, priority 2012, dated 2016).

Common to all, as to format: biochemical
Assay [1] deals with T1, GST-tagged Tankyrase-1 (1023-1327 aa) (Homo sapiens, UniProt O95271).
T1 construct: GST-tagged Tankyrase-1 (1023-1327 aa)
Briefly: Tankyrase 1 autoparsylation assay (HTRF enzyme assay).

For assay [2], the target named is T2, GST-tagged Tankyrase-2 (873-1166 aa) (Homo sapiens, UniProt Q9H2K2).
T2 construct: GST-tagged Tankyrase-2 (873-1166 aa)
T2 sequence (Q9H2K2 873-1166): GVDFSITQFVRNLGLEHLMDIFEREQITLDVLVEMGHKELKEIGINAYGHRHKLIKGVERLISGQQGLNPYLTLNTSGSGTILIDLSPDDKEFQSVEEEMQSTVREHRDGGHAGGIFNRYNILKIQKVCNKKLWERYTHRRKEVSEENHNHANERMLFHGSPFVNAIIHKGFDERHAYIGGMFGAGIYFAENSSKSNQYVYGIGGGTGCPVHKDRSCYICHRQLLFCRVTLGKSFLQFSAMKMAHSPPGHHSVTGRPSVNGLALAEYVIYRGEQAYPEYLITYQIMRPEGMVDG
Briefly: Tankyrase 2 autoparsylation assay (HTRF enzyme assay).

The target in assay [3] is T3, GST-tagged Tnks-2 (873-1166 aa) (Homo sapiens, UniProt Q9H2K2).
T3 construct: GST-tagged Tnks-2 (873-1166 aa, prepared in-house); made in house
T3 sequence (Q9H2K2 873-1166): as above
The experiment in a line: TNKS 2 activity ELISA (autoparsylation assay). The note with it: read-out: IC50 tankyrase 2 (ELISA assay).

T1 sequence (O95271 1023-1327): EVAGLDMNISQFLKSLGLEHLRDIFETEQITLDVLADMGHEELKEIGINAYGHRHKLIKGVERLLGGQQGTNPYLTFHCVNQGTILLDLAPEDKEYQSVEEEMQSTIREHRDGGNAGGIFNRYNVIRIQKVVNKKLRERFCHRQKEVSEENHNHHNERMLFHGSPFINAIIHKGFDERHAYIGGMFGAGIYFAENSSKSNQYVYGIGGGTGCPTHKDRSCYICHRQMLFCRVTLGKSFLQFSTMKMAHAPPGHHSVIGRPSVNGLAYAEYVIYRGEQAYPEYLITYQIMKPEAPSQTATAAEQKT

In the case of `COc1cccc(N2CCN(c3nc4c(c(=O)[nH]3)CCCC4)CC2)c1` [Compound A7, 2-[4-(3-Methoxyphenyl)piperazin-1-yl]-5,6,7,8-tetrahydro-3H-quinazolin-4-one], the figures for the IC50 in assay [1], in assay [2] and in assay [3] were < 300 nM, 300 to 3000 nM and < 300 nM, respectively.
Consider `COc1ccccc1N1CCN(c2nc3c(c(=O)[nH]2)CCCC3)CC1` [Compound A12, 2-[4-(2-Methoxyphenyl)piperazin-1-yl]-5,6,7,8-tetrahydro-3H-quinazolin-4-one], for which the half-maximal inhibitory concentration (IC50) in assay [1] is < 300 nM; in assay [2], 300 to 3000 nM; in assay [3], < 300 nM.
On to `O=c1[nH]c(N2CCN(c3ccc(F)cc3)CC2)nc2c1CCCC2` [Compound A6, 2-[4-(4-Fluorophenyl)piperazin-1-yl]-5,6,7,8-tetrahydro-3H-quinazolin-4-one], for which the IC50 is 300 to 3000 nM in assay [1], 300 to 3000 nM in assay [2] and < 300 nM in assay [3].
As for `N#Cc1ccccc1N1CCN(c2nc3c(c(=O)[nH]2)CCCC3)CC1` [Compound A33, 2-[4-(4-oxo-5,6,7,8-tetrahydro-3H-quinazolin-2-yl)piperazin-1-yl]benzonitrile], the concentration for half-maximal inhibition (IC50) is < 300 nM in assay [1], 300 to 3000 nM in assay [2] and < 300 nM in assay [3].
For `COc1cc(F)ccc1N1CCN(c2nc3c(c(=O)[nH]2)CCCC3)CC1` [Compound A36, 2-[4-(4-fluoro-2-methoxy-phenyl)piperazin-1-yl]-5,6,7,8-tetrahydro-3H-quinazolin-4-one], the IC50 is < 300 nM in assay [1], 300 to 3000 nM in assay [2] and < 300 nM in assay [3].
As for `O=c1[nH]c(N2CCN(c3ccccc3Cl)CC2)nc2c1CCCC2` [Compound A9, 2-[4-(2-Chlorophenyl)piperazin-1-yl]-5,6,7,8-tetrahydro-3H-quinazolin-4-one], the IC50 in assay [1] was < 300 nM; in assay [2], 300 to 3000 nM; in assay [3], < 300 nM.
Regarding `COc1ccc(N2CCN(c3nc4c(c(=O)[nH]3)CCCC4)CC2)cc1` [Compound A3, 2-[4-(4-methoxy-phenyl)-piperazin-1-yl]-5,6,7,8-tetrahydro-3H-quinazolin-4-one], the IC50 is 300 to 3000 nM in assay [1], 300 to 3000 nM in assay [2] and < 300 nM in assay [3].
